# PubChem BioAssay AID1745844 (Carcinogenic Potency Database (CPDB), 2022)
# Test system: rodent lifetime carcinogenesis bioassay, tumor incidence TD50
# Experiment: carcinogenic potency in animals, long-term in vivo studies, CPDB compilation (AID 1745844)
# Conditions: rat, strain Fischer 344, in drinking water, study length 97 weeks
compound,measurement,setting,value
COc1cc(-c2ccc(N=Nc3c(S(=O)(=O)O)cc4cc(S(=O)(=O)O)cc(N)c4c3O)c(OC)c2)ccc1N=Nc1c(S(=O)(=O)O)cc2cc(S(=O)(=O)O)cc(N)c2c1O,TD50,"females, site: Zymbal's gland, lesion: adenoma + carcinoma, dosed 96 weeks",104 mg/kg/day
same,TD50,"females, site: Zymbal's gland, lesion: adenoma, dosed 96 weeks",321 mg/kg/day
same,TD50,"females, site: Zymbal's gland, lesion: carcinoma, dosed 96 weeks",150 mg/kg/day
same,TD50,"females, site: any site (literature study), lesion: several types, types named in the paper, dosed 96 weeks",20.4 mg/kg/day
same,TD50,"females, site: clitoral gland, lesion: adenoma + adenoma, bilateral + carcinoma + carcinoma, bilateral, dosed 96 weeks",46.2 mg/kg/day
same,TD50,"females, site: clitoral gland, lesion: adenoma + adenoma, bilateral, dosed 96 weeks",90.1 mg/kg/day
same,TD50,"females, site: clitoral gland, lesion: carcinoma + carcinoma, bilateral, dosed 96 weeks",107 mg/kg/day
same,TD50,"females, site: colon, ascending + clitoral gland + colon + colon, descending + duodenum + jejunum + liver + multiple organs + palate + skin + tongue + uterus, lesion: adenomatous polyp + adenoma + adenoma, bilateral + carcinoma + carcinoma, bilateral + mucinous cystadenocarcinoma + adenocarcinoma + h, dosed 96 weeks",21.3 mg/kg/day
same,TD50,"females, site: colon, ascending + colon + colon, descending, lesion: adenomatous polyp, dosed 96 weeks",491 mg/kg/day
same,TD50,"females, site: duodenum + jejunum, lesion: mucinous cystadenocarcinoma + adenocarcinoma, dosed 96 weeks",997 mg/kg/day
same,TD50,"females, site: jejunum, lesion: adenocarcinoma + mucinous cystadenocarcinoma, dosed 96 weeks",1180 mg/kg/day
same,TD50,"females, site: liver, lesion: hepatocellular adenoma + hepatocellular carcinoma + neoplastic nodule, dosed 96 weeks",394 mg/kg/day
same,TD50,"females, site: liver, lesion: hepatocellular carcinoma + neoplastic nodule, dosed 96 weeks",394 mg/kg/day
same,TD50,"females, site: liver, lesion: neoplastic nodule, dosed 96 weeks",429 mg/kg/day
same,TD50,"females, site: multiple organs, lesion: mononuclear-cell leukemia, dosed 96 weeks",50 mg/kg/day
same,TD50,"females, site: palate + tongue, lesion: squamous-cell carcinoma + squamous-cell papilloma, dosed 96 weeks",81 mg/kg/day
same,TD50,"females, site: palate + tongue, lesion: squamous-cell carcinoma, dosed 96 weeks",208 mg/kg/day
same,TD50,"females, site: palate + tongue, lesion: squamous-cell papilloma, dosed 96 weeks",132 mg/kg/day
same,TD50,"females, site: palate, lesion: squamous-cell carcinoma, dosed 96 weeks",456 mg/kg/day
same,TD50,"females, site: palate, lesion: squamous-cell papilloma, dosed 96 weeks",157 mg/kg/day
same,TD50,"females, site: skin, lesion: squamous-cell carcinoma + squamous-cell papilloma, dosed 96 weeks",158 mg/kg/day
same,TD50,"females, site: skin, lesion: squamous-cell papilloma, dosed 96 weeks",174 mg/kg/day
same,TD50,"females, site: tongue, lesion: squamous-cell carcinoma + squamous-cell papilloma, dosed 96 weeks",238 mg/kg/day
same,TD50,"females, site: tongue, lesion: squamous-cell carcinoma, dosed 96 weeks",384 mg/kg/day
same,TD50,"females, site: uterus, lesion: adenocarcinoma + adenoma, dosed 96 weeks",493 mg/kg/day
same,TD50,"females, site: uterus, lesion: endometrial stromal polyp + endometrial stromal sarcoma, dosed 96 weeks",122 mg/kg/day
same,TD50,"females, site: uterus, lesion: endometrial stromal polyp, dosed 96 weeks",132 mg/kg/day
same,TD50,"males, site: Zymbal's gland, lesion: adenoma + carcinoma, dosed 97 weeks",89.2 mg/kg/day
same,TD50,"males, site: Zymbal's gland, lesion: adenoma, dosed 97 weeks",237 mg/kg/day
same,TD50,"males, site: Zymbal's gland, lesion: carcinoma, dosed 97 weeks",132 mg/kg/day
same,TD50,"males, site: adrenal medulla, lesion: pheochromocytoma benign, bilateral + pheochromocytoma, benign, dosed 97 weeks",39.8 mg/kg/day
same,TD50,"males, site: adrenal medulla, lesion: pheochromocytoma benign, bilateral + pheochromocytoma, complex + pheochromocytoma, malignant + pheochromocytoma, benign, dosed 97 weeks",36.6 mg/kg/day
same,TD50,"males, site: any site (literature study), lesion: several types, types named in the paper, dosed 97 weeks",12 mg/kg/day
same,TD50,"males, site: brain, medulla + cerebrum, lesion: astrocytoma, malignant, dosed 97 weeks",600 mg/kg/day
same,TD50,"males, site: colon, ascending + colon + colon, descending + jejunum + liver + palate + pharynx + preputial gland + skin + tongue + Zymbal's gland, lesion: adenomatous polyp + adenocarcinoma + mucinous cystadenocarcinoma + hepatocellular carcinoma + neoplastic nodule + squamous-cell pa, dosed 97 weeks",11.8 mg/kg/day
same,TD50,"males, site: colon, ascending + colon + colon, descending, lesion: adenomatous polyp + adenocarcinoma, dosed 97 weeks",162 mg/kg/day
same,TD50,"males, site: colon, ascending + colon + colon, descending, lesion: adenomatous polyp, dosed 97 weeks",310 mg/kg/day
same,TD50,"males, site: colon, lesion: adenocarcinoma, dosed 97 weeks",355 mg/kg/day
same,TD50,"males, site: jejunum, lesion: adenocarcinoma + adenomatous polyp + mucinous cystadenocarcinoma, dosed 97 weeks",1630 mg/kg/day
same,TD50,"males, site: liver, lesion: hepatocellular adenoma + hepatocellular carcinoma + neoplastic nodule, dosed 97 weeks",55.2 mg/kg/day
same,TD50,"males, site: liver, lesion: hepatocellular carcinoma + neoplastic nodule, dosed 97 weeks",55.2 mg/kg/day
same,TD50,"males, site: liver, lesion: hepatocellular carcinoma, dosed 97 weeks",375 mg/kg/day
same,TD50,"males, site: liver, lesion: neoplastic nodule, dosed 97 weeks",65.3 mg/kg/day
same,TD50,"males, site: multiple organs, lesion: mononuclear-cell leukemia, dosed 97 weeks",23 mg/kg/day
same,TD50,"males, site: palate + pharynx + tongue, lesion: squamous-cell papilloma + squamous-cell carcinoma, dosed 97 weeks",39.3 mg/kg/day
same,TD50,"males, site: palate + tongue, lesion: squamous-cell papilloma, dosed 97 weeks",43.6 mg/kg/day
same,TD50,"males, site: palate, lesion: squamous-cell papilloma, dosed 97 weeks",47 mg/kg/day
same,TD50,"males, site: pharynx + tongue, lesion: squamous-cell carcinoma, dosed 97 weeks",361 mg/kg/day
same,TD50,"males, site: pharynx, lesion: squamous-cell carcinoma, dosed 97 weeks",466 mg/kg/day
same,TD50,"males, site: preputial gland, lesion: adenoma + adenoma, bilateral + carcinoma + carcinoma, bilateral, dosed 97 weeks",55.3 mg/kg/day
same,TD50,"males, site: preputial gland, lesion: adenoma + adenoma, bilateral, dosed 97 weeks",77.1 mg/kg/day
same,TD50,"males, site: preputial gland, lesion: carcinoma + carcinoma, bilateral, dosed 97 weeks",207 mg/kg/day
same,TD50,"males, site: skin, lesion: basal-cell adenoma + basal-cell carcinoma + sebaceous adenoma, dosed 97 weeks",18.1 mg/kg/day
same,TD50,"males, site: skin, lesion: basal-cell adenoma + basal-cell carcinoma, dosed 97 weeks",19.6 mg/kg/day
same,TD50,"males, site: skin, lesion: basal-cell adenoma, dosed 97 weeks",21.6 mg/kg/day
same,TD50,"males, site: skin, lesion: basal-cell carcinoma, dosed 97 weeks",101 mg/kg/day
same,TD50,"males, site: skin, lesion: keratoacanthoma, dosed 97 weeks",152 mg/kg/day
same,TD50,"males, site: skin, lesion: sebaceous adenoma, dosed 97 weeks",108 mg/kg/day
same,TD50,"males, site: skin, lesion: squamous-cell carcinoma + squamous-cell papilloma, dosed 97 weeks",51 mg/kg/day
same,TD50,"males, site: skin, lesion: squamous-cell carcinoma, dosed 97 weeks",89.7 mg/kg/day
same,TD50,"males, site: skin, lesion: squamous-cell papilloma, dosed 97 weeks",92.8 mg/kg/day
same,TD50,"males, site: subcutaneous tissue, lesion: fibroma + sarcoma, dosed 97 weeks",131 mg/kg/day
same,TD50,"males, site: subcutaneous tissue, lesion: fibroma, dosed 97 weeks",150 mg/kg/day
same,TD50,"males, site: testis, lesion: interstitial-cell adenoma, bilateral + interstitial-cell adenoma, dosed 97 weeks",12.9 mg/kg/day
same,TD50,"males, site: thyroid gland, lesion: c-cell adenoma + c-cell adenoma, bilateral, dosed 97 weeks",143 mg/kg/day
same,TD50,"males, site: thyroid gland, lesion: c-cell adenoma + c-cell carcinoma, bilateral + c-cell carcinoma + c-cell adenoma, bilateral, dosed 97 weeks",116 mg/kg/day
same,TD50,"males, site: thyroid gland, lesion: follicular-cell adenoma + follicular-cell carcinoma, dosed 97 weeks",103 mg/kg/day
same,TD50,"males, site: thyroid gland, lesion: follicular-cell adenoma, dosed 97 weeks",49.7 mg/kg/day
same,TD50,"males, site: thyroid gland, lesion: follicular-cell carcinoma, dosed 97 weeks",331 mg/kg/day
same,TD50,"males, site: tongue, lesion: squamous-cell carcinoma + squamous-cell papilloma, dosed 97 weeks",371 mg/kg/day
